Earlier results as cited in patent US20040259736A1, “Biodegradable solid preparation of a phytopathologicalagent with delayed active substance release” (priority 2001, published 2004).
In brackets after ≈: the same amount, converted by molar mass.

SMILES | solubility in water [µg/mL] | solubility in water (in words)
CN/C(=N\[N+](=O)[O-])NCc1cnc(Cl)s1 [Clothianidin, (E)-1-(2-chlorothiazol-5-ylmethyl)-3-methyl-2-nitroguanidine] | 270 (≈ 1080 µM) | –
CNC(=O)C(=NOC)c1ccccc1CO/N=C(\C)C(=NOC)/C(C)=N/OC [II-4, N-Methyl-2-(methoxyimino)-2-{2-[(3E,6E)-5-(methoxyimino)-4,6-dimethyl-2,8-dioxa-3,7-diazanona-3,6-dien-1-yl]phenyl}-acetamide] | 80 (≈ 204 µM) | –
CNC(=N[N+](=O)[O-])NCC1CCOC1 (stereo not shown) [MTI-446] | 54000 (≈ 267000 µM) | freely soluble in water
